Measured values as given in patent publication US5912266A, “Beta2 integrin cell adhesion molecule inhibitors” (American Home Products Corporation, priority 1997, dated 1999).
“And” between values parts separate entries of the source, which are not always exact repeats. Identical values can stand only once.

Columns and labels:
[1] = MTT cytotoxicity assay, HL60 cells; type: cell-based; settings: human, hl60 cells, HL60, 30 min., read-out: % Inhibition MTT Reduction
Description: (§1) This experiment describes the affect of asperlin on cellular respiration (mitochondrial activity) by measuring the reduction of the tetrazolium salt MTT to formazan crystals (Moseman, et al). This assay served as a control to ensure that the decrease in the fluorescence observed in Example I, Table I, was not the result of the fluorescent dye leaking from the cells due to disruption of the cell membrane. To address this issue, the mitochondrial activity of β2 and β1 integrin expressing cells in the presence of asperlin was quantitated using a commercially available MTT cytotoxicity kit (Promega No. G4100).
(§2) HL60 and U937 cells were purchased from the American Type Culture Collection (ATCC) and maintained in RPMI 1640 culture media containing 10% heat inactivated fetal bovine serum (refer to Example I, materials). HL60 cells were used between passages 20 and 30. HL60 cells were stimulated by a four day exposure to DMSO, as described in Example I, materials. Falcon round bottom tissue culture plates (No. 3077) were used for the experiment. All remaining reagents were supplied in Promega's MTT cytotoxicity kit (Catalog No. G4100).
(§3) The assay procedure described in the Promega MTT kit was used with the following changes.
(§4) Asperlin was solubilized in 100% DMSO at a concentration of 50 mg/ml. The 50 mg/ml asperlin stock was diluted to 400 μg/ml with culture media containing 5% fetal bovine serum (FBS). This solution was further diluted to 80 and 20 μg/ml with culture media supplemented with 5% FBS plus 2% DMSO. 50 μl of the 20 and 80 μg/ml asperlin solutions were added to wells of a sterile, round bottom 96 well assay plate. Control wells received 50 μl of culture media containing 5% FBS plus 2% DMSO. Duplicate assay wells were prepared such that U937 and HL60 cells could be evaluated on the same plate. The cell density of β1 integrin expressing U937, and β2 integrin expressing HL60 cell cultures were determined using a hemacytometer.
(§5) Cells were harvested by centrifuging for 5 minutes at 1000 rpm, room temperature, in a Sorvall RT600 bench-top centrifuge. The HL60 cell pellet was resuspended in fresh culture media at a concentration of 5×10^6 cells/ml. The U937 cell pellet was resuspended in fresh culture media at a concentration of 2.5×10^6 cells/ml. 2.5×10^5 β2 integrin expressing HL60 cells, contained in 50 μl, were added to wells of the assay plate using a multichannel pipettor. In duplicate assay wells, 1.25×10^5 β1 integrin expressing U937 cells, contained in 50 μl, were added to wells of the assay plate using a multichannel pipettor. Assay plates were incubated for either 30 minutes, 60 minutes, or 4 hours in a 37° C. 5% CO2, humidified incubator.
(§6) At the appropriate time point, 15 μl of MTT reagent, supplied in the Promega assay kit, was added to each well using a multichannel pipettor. Assay plates were incubated in the 37° C. incubator, as just described, for two hours. The MTT reduction reaction was quenched, and the visible formazan crystals were solubilized by adding exactly 100 μl of Promega's solubilization buffer to each well. […] The optical density (OD) of each well of the assay plate was determined using a microtiter plate reader (Flow Labs) set at a wavelength of 580 nm with a correction wavelength of 630 nm.
(§7) Replicate sample ODs were average. The percentage of inhibition of cellular respiration (mitochondrial activity) by asperlin was quantitated by the following equation: […]

HL60 cells = experiment: MTT cytotoxicity assay, HL60 cells; type: cell-based; settings: for Average Optical Density: HL60, 30 min.
Description: as §1, §2, §3, §4, §5, §6, §7

[2] = MTT cytotoxicity assay, U937 cells; type: cell-based, human; settings: human, u937 cells, U937, 30 min., read-out: % Inhibition MTT Reduction
Description: as §1, §2, §3, §4, §5
(§8) At the appropriate time point, 15 μl of MTT reagent, supplied in the Promega assay kit, was added to each well using a multichannel pipettor. Assay plates were incubated in the 37° C. incubator, as just described, for two hours. The MTT reduction reaction was quenched, and the visible formazan crystals were solubilized by adding exactly 100 μl of Promega's solubilization buffer to each well. Assay plates were incubated for at least 18 hours in the same 37° C. incubator just described to solubilize the formazan reagent. Assay plates were removed from the incubator and allowed to cool to room temperature. The optical density (OD) of each well of the assay plate was determined using a microtiter plate reader (Flow Labs) set at a wavelength of 580 nm with a correction wavelength of 630 nm.
(§9) Replicate sample ODs were average. The percentage of inhibition of cellular respiration (mitochondrial activity) by asperlin was quantitated by the following equation:
(§10) % Inhibition=(1-(Sample OD.div.Average Control OD))×100

U937 cells = experiment: MTT cytotoxicity assay, U937 cells; type: cell-based, human; settings: for Average Optical Density / Optical Density: U937, 30 min.; for Optical Density: single well, 580 nm
Description: as §1, §2, §3, §4, §5, §8, §9, §10

LFA-1 = experiment: β2 integrin/ICAM-1 homotypic (cell:cell) binding of 8866 cells; type: cell-based, human
Description: The following experiment describes the inhibition of homotypic (cell:cell) binding of β2 and ICAM-1 expressing cells by asperlin. 8866 cells, a human B-cell line, were supplied by Athena Neurosciences (San Francisco, Calif.). These cells constitutively express both the β2 integrin referred to as LFA-1, and ICAM-1 on the cell surface. In culture, 8866 cells spontaneously bind, or clump together, as a result of β2 integrin binding to ICAM-1.
8866 cells were maintained in RPMI 1640 culture media (refer to Example I) supplemented with […] HEPES buffer (Gibco No. 15630-080). Cells were subcultured when the cell density was approximately 1×10^6 cells/ml. […]
8866 cells were harvested by centrifuging 5 minutes, at 1000 rpm, room temperature, in a Sorvall RT6000 centrifuge. The cell pellet was resuspended in culture media and cells were counted using a hemacytometer. […]
Asperlin was solubilized in 100% DMSO at a concentration of 20 mg/ml, 10 mg/ml, 5 mg/ml, and 2.5 mg/ml. […] The progression of homotypic binding was monitored by microscopic observations after 1 and 2 hours of incubation.
Inhibition β2 integrin dependent homotypic binding to ICAM-1 by asperlin was photographically recorded using a Nikon 35 mm camera attached to a Nikon Diaphot 300 inverted microscope (filter setting NCBII, objective 10×, and light setting of photo).

## CC(=O)OC1C=CC(=O)OC1C1OC1C [Asperlin, 6,7-Anhydro-2,3,8-trideoxy-D-galacto-oct-2-enoic acidδ-lactone 4-acetate]
[1]; Asperlin 10 μg/mL
  cytotoxicity at 0.5 h: 8%
[1]; Asperlin 40 μg/mL
  cytotoxicity at 0.5 h: 27%
HL60 cells; Asperlin 10 μg/mL
  Average Optical Density: .819
HL60 cells; Asperlin 40 μg/mL
  Average Optical Density: .649
HL60 cells; β2 integrin expressing HL60 cells
  Cytotoxicity (in words): not cytotoxic
[2]; Asperlin 10 μg/mL
  cytotoxicity at 0.5 h: 0%
[2]; Asperlin 40 μg/mL
  cytotoxicity at 0.5 h: 11%
U937 cells; Asperlin 10 μg/mL
  Average Optical Density: 1.532
  Optical Density: 1.410 and 1.601 and 1.584
U937 cells; Asperlin 40 μg/mL
  Average Optical Density: 1.386
  Optical Density: 1.362 and 1.352 and 1.391
U937 cells; β1 integrin expressing U937 cells
  Cytotoxicity (in words): not cytotoxic
LFA-1; after 1 hour of incubation
  Inhibition of 8866 cell homotypic binding, visual inspection (in words): inhibit cell--cell binding in a dose dependent manner
LFA-1; after 2 hours of incubation
  Inhibition of 8866 cell homotypic binding, visual inspection (in words): inhibited 8866, β2 integrin mediated homotypic binding to ICAM-1 in a dose dependent manner
